Four compounds from patent publication US5494898A, “Peptide skeletal muscle relaxants” (priority 1994, dated 1996) can be followed below.

Molecules are shown by their SMILES. Square brackets hold non-standard residues; d marks the D form. Peptide text beside a SMILES is read from it. * marks the point of attachment. dLys(Me3) = C[N+](C)(C)CCCC[C@@H](N)C(=O)O; Boc = CC(C)(C)OC(=O)*

Data set [1] has as its system neuromuscular junction. The data set is described as follows: Rabbit paw twitch analysis. It counts as in vivo. The following applies: for ED90 (dose required to depress twitch tension to 10% of control): anesthetized male New Zealand white rabbits, i.v. marginal ear vein. From the text: In a large series of similar relaxants, the rabbit dose is typically 125% of that in mice. The mechanism of action was also confirmed in this test by observing train-of-four and tetanus fade, post-tetanic potentiation of single twitches and administration of the anticholinesterase drug neostigmine which reverses the relaxation. Reversibility, rapid onset and short duration are important factors to the anesthesiologist.
The following is a brief description of the methodologies used in rabbits to describe neuromuscular blocking activity of the subject compounds. A more detailed description of these methods is presented in "Microcomputer Use in Measuring Onset, Duration, and Recovery from Non-Depolarizing Skeletal Muscle Relaxants in Rabbits", P.D. Thut et al., Drug development Research 5:182, 1985.
Male New Zealand white rabbits weighing between 2.5 and 3.4 kg were anesthetized with pentobarbital (30 mg/kg) and placed on their backs upon a 40° C. water filled temperature regulation pad. Following tracheostomy, the lungs were mechanically ventilated at 28 breaths per minute with room air, using an open system delivering 200 ml/stroke. This ventilation maintained pCO2 at 38 […] and pO2 at 85 mmHg. Direct arterial blood pressure was measured from the right common carotid artery. The test compounds were administered through a cannula placed in the marginal ear vein. Each foreleg was taped to a cushioned plate held in a femur clamp attached to the spinal board rack. The left central digit of each paw was connected to a force displacement transducer for measurement of muscle tension. Nerve stimulation was provided by pairs of pin electrodes placed on both sides of the ulnar nerve at the elbow of both forearms. The right ulnar nerve was stimulated at 1 Hz, 1 pps for 0.5 msec duration. The left ulnar nerve was similarly stimulated, every 15 seconds, with addition of interspersed trains-of-four and tetanizing stimuli. The parameters reported in Table II are: potency (ED90), which is the dose required to depress twitch tension to 10% of its control value; onset (T85%), which is the time from injection until 85% of the maximal drug effect is achieved; duration, which is the time from injection until the train-of-four has recovered to 75%; blood pressure (BP), which is the percentage change of pre-drug blood pressure; and heart rate (HR), which is the percentage change from pre-drug heart rate.

For data set [2], the system named is neuromuscular junction. The data set is described as follows: Mouse inclined screen grip strength test (neuromuscular junction blocking activity). Format: in vivo. Particulars: mice on screen inclined 45°; dose required to inhibit grip strength. As for the experimental part: The first step, in mice, establishes a preliminary estimate of the potency and efficacy of the compounds. The animals were placed on a screen, inclined 45° to the horizontal. Effective doses caused the mice to lose their grip and slide down the inclined screen. The dose in mg/kg of body weight required to inhibit grip strength in 100% of the mice tested in a dosage group is reported.

On to `COC(=O)[C@@H](CCCC[N+](C)(C)C)NC(=O)[C@@H](Cc1ccccc1)NC(=O)[C@@H](CCCC[N+](C)(C)C)NC(=O)OC(C)(C)C` [Compound B] (Boc-[dLys(Me3)]-[dF]-[dLys(Me3)]-OMe), for which the “HR (% change from pre-drug heart rate)” value in data set [1] (rabbit, equi-efficacious dose) is listed as 8.79 % change. Further, the “BP (% change of pre-drug blood pressure)” value in data set [1] (rabbit, equi-efficacious dose, carotid arterial pressure) is recorded as -18.83 % change.

As to `COc1ccc(CC2c3cc(OC)c(OC)cc3CC[N+]2(C)CCC(=O)OCCCCCOC(=O)CC[N+]2(C)CCc3cc(OC)c(OC)cc3C2Cc2ccc(OC)c(OC)c2)cc1OC` (stereo not drawn) [atracurium], the “Neuromuscular Junction Blocking Activity (ED90), Mouse” value in data set [2] was 0.63 mg/kg. The “ED90 (dose required to depress twitch tension to 10% of control)” value in data set [1] is 0.05 mg/kg. Moreover, the “T85% onset (time from injection until 85% of maximal drug effect)” value (from here on “T85% onset”) in data set [1] (rabbit, equi-efficacious dose) came out at 126.90 s.

`CC(=O)O[C@H]1C[C@@H]2CC[C@@H]3[C@H](CC[C@@]4(C)[C@H]3C[C@H]([N+]3(C)CCCCC3)[C@@H]4OC(C)=O)[C@@]2(C)C[C@@H]1[N+]1(C)CCCCC1` [pancuronium]: the “ED90 (dose required to depress twitch tension to 10% of control)” value in data set [1] came to 0.02 mg/kg. Further, in data set [1] (rabbit, equi-efficacious dose), the “Duration (time from injection until train-of-four recovered to 75%)” value was found to be 35.50 min and the “T85% onset” value is 147.50 s.

As to `CC(=O)O[C@H]1C[C@@H]2CC[C@@H]3[C@H](CC[C@@]4(C)[C@H]3C[C@H]([N+]3(C)CCCCC3)[C@@H]4OC(C)=O)[C@@]2(C)C[C@@H]1N1CCCCC1` [vecuronium], the “Neuromuscular Junction Blocking Activity (ED90), Mouse” value in data set [2] turned out to be 0.03 mg/kg. Further, the “ED90 (dose required to depress twitch tension to 10% of control)” value in data set [1] is given as 0.02 mg/kg. In addition, in data set [1] (rabbit, equi-efficacious dose), the “HR (% change from pre-drug heart rate)” value was -9.90 % change and the “T85% onset” value stood at 97.30 s.
